What was measured:
D1R [1] = target: T1, D1R (Homo sapiens, UniProt P21728); assay: radioligand competition binding, cell homogenates
D1R [2] = target: T1, D1R; assay: BRET Gs heterotrimer dissociation; format: cell-based

T1 sequence (P21728 whole entry): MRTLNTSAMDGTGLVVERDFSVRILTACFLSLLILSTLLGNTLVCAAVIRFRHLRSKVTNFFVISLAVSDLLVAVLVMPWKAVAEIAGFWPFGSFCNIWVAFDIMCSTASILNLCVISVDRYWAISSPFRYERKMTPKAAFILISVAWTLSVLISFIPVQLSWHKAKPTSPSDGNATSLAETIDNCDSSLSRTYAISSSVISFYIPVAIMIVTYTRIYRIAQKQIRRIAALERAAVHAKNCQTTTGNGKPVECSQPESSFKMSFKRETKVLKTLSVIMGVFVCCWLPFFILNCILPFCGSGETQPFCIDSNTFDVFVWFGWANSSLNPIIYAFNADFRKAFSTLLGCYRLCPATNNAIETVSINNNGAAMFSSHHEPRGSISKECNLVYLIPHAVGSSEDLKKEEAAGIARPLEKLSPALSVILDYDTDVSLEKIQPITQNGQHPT

Ki (D1R [1]) | pKi (D1R [1]; […] [3H]SCH-23390, […] min, room temperature) | Kb (D1R [2]) | Compound
0.398 µM | – | – | CN1CCc2cc(Cl)c(O)cc2C(c2ccc(NS(=O)(=O)CCCNC(=O)c3ccc(-c4c5ccc(N(C)C)cc5[o+]c5cc(N(C)C)ccc45)c(C(=O)[O-])c3)cc2)C1 (racemic) [compound 23, 5-((3-(N-(4-(7-Chloro-8-hydroxy-3-methyl-2,3,4,5-tetrahydro-1H-benzo[d]azepin-1-yl)phenyl)sulfamoyl)propyl)carbamoyl)-2-(6-(dimethylamino)-3-(dimethyliminio)-3H-xanthen-9-yl)benzoate]
– | 6.85 ± 0.07 | – | COCC[N+]1=C(/C=C/C=C2N(CCCCCC(=O)NCCOCCOCCn3cc(CNC(=O)CCCCS(=O)(=O)Nc4ccc(C5CN(C)CCc6cc(Cl)c(O)cc65)cc4)nn3)c3ccc(S(=O)(=O)[O-])cc3C2(C)CCCS(=O)(=O)O)C(C)(CCCS(=O)(=O)O)c2cc(S(=O)(=O)O)ccc21 (stereo not shown) [compound 28, 2-((E)-3-((E)-1-(6-((2-(2-(2-(4-((5-(N-(4-(7-Chloro-8-hydroxy-3-methyl-2,3,4,5-tetrahydro-1H-benzo[d]azepin-1-yl)phenyl)sulfamoyl)pentanamido)methyl)-1H-1,2,3-triazol-1-yl)ethoxy)ethoxy)ethyl)amino)-6-oxohexyl)-3-methyl-5-sulfonato-3-(3-sulfonatopropyl)indolin-2-ylidene)prop-1-en-1-yl)-1-(2-methoxyethyl)-3-methyl-3-(3-sulfonatopropyl)-3H-indol-1-ium-5-sulfonate]
0.0102 µM | – | – | COCC[N+]1=C(/C=C/C=C2N(CCCCCC(=O)NCCCS(=O)(=O)Nc3ccc(C4CN(C)CCc5cc(Cl)c(O)cc54)cc3)c3ccc(S(=O)(=O)[O-])cc3C2(C)CCCS(=O)(=O)O)C(C)(CCCS(=O)(=O)O)c2cc(S(=O)(=O)O)ccc21 (stereo not shown) [compound 24, (E)-1-(6-((3-(N-(4-(7-Chloro-8-hydroxy-3-methyl-2,3,4,5-tetrahydro-1H-benzo[d]azepin-1-yl)phenyl)sulfamoyl)propyl)amino)-6-oxohexyl)-2-((E)-3-(1-(2-methoxyethyl)-3-methyl-5-sulfo-3-(3-sulfopropyl)-3H-indol-1-ium-2-yl)allylidene)-3-methyl-3-(3-sulfopropyl)indoline-5-sulfonate]
0.288 µM | – | – | COCC[N+]1=C(/C=C/C=C2N(CCCCCC(=O)NCCOCCn3cc(CNC(=O)CCCCS(=O)(=O)Nc4ccc(C5CN(C)CCc6cc(Cl)c(O)cc65)cc4)nn3)c3ccc(S(=O)(=O)[O-])cc3C2(C)CCCS(=O)(=O)O)C(C)(CCCS(=O)(=O)O)c2cc(S(=O)(=O)O)ccc21 (stereo not shown) [compound 26, 2-((E)-3-((E)-1-(6-((2-(2-(4-((5-(N-(4-(7-Chloro-8-hydroxy-3-methyl-2,3,4,5-tetrahydro-1H-benzo[d]azepin-1-yl)phenyl)sulfamoyl)pentanamido)methyl)-1H-1,2,3-triazol-1-yl)ethoxy)ethyl)amino)-6-oxohexyl)-3-methyl-5-sulfonato-3-(3-sulfonatopropyl)indolin-2-ylidene)prop-1-en-1-yl)-1-(2-methoxyethyl)-3-methyl-3-(3-sulfonatopropyl)-3H-indol-1-ium-5-sulfonate]
0.00457 µM | – | 0.0513 µM | CN1CCc2cc(Cl)c(O)cc2C(c2ccc(NS(=O)(=O)CCCCC(=O)NCc3cn(CCOCCNC(=O)c4ccc(-c5c6ccc(N(C)C)cc6[o+]c6cc(N(C)C)ccc56)c(C(=O)[O-])c4)nn3)cc2)C1 (racemic) [compound 25, 2-(3,6-Bis(dimethylamino)xanthylium-9-yl)-5-((2-(2-(4-((5-(N-(4-(7-chloro-8-hydroxy-3-methyl-2,3,4,5-tetrahydro-1H-benzo[d]azepin-1-yl)phenyl)sulfamoyl)pentanamido)methyl)-1H-1,2,3-triazol-1-yl)ethoxy)ethyl)carbamoyl)benzoate]
0.00955 µM | – | – | CN1CCc2cc(Cl)c(O)cc2C(c2ccc(NS(=O)(=O)CCCCC(=O)NCc3cn(CCOCCOCCNC(=O)c4ccc(-c5c6ccc(N(C)C)cc6[o+]c6cc(N(C)C)ccc56)c(C(=O)[O-])c4)nn3)cc2)C1 (racemic) [compound 27, 2-(3,6-Bis(dimethylamino)xanthylium-9-yl)-5-((2-(2-(2-(4-((5-(N-(4-(7-chloro-8-hydroxy-3-methyl-2,3,4,5-tetrahydro-1H-benzo[d]azepin-1-yl)phenyl)sulfamoyl)pentanamido)methyl)-1H-1,2,3-triazol-1-yl)ethoxy)ethoxy)ethyl)carbamoyl)benzoate]

Reference: article doi:10.1101/2023.09.25.559386v1 (biorxiv, 2023)
